Values quoted from earlier work in patent US12295729B2, “Apparatus and method for delivery of antimicrobial during a transdermal sampling and delivery process” (Georgetown University, priority 2015, dated 2025).

How the values were obtained:
[1] = test system: Porphyromonas circumdentaria
[2] = test system: Prevotella melaninogenica
[3] = test system: Shigella sp.
[4] = test system: Streptococcus mutans
[5] = test system: Lactobacillus casei
[6] = test system: Porphyromonas gingivalis
[7] = test system: Aggregatibacter actinomycetemcomitans
[8] = test system: Propionibacterium acnes
[9] = test system: Acinetobacter baumannii
[10] = test system: Haemophilus influenza
[11] = test system: Tannerella forsythia
[12] = test system: Francisella novicida
[13] = test system: Borrelia spp.
[14] = test system: Prevotella loescheii
[15] = test system: Capnocytophaga spp.
[16] = test system: Mycobacterium smegmatis
[17] = test system: Staphylococcus aureus
[18] = test system: Listeria monocytogenes
[19] = test system: Pseudomonas aeruginosa
[20] = test system: Micrococcus luteus
[21] = test system: Brucella suis
[22] = test system: Achromobacter xylosoxidans
[23] = test system: Burkholderia thailandensis
[24] = test system: Burkholderia pseudomallei
[25] = test system: Salmonella sp.
[26] = test system: Fusobacterium nucleatum
[27] = test system: Group A streptococcus
[28] = test system: Burkholderia cepacia
[29] = test system: Stenotrophomonas maltophilia
[30] = test system: Helicobacter pylori
[31] = test system: Mannheimia haemolytica
[32] = test system: Streptococcus pneumonia
[33] = test system: Klebsiella pneumonia
[34] = test system: Treponema pallidum
[35] = test system: Escherichia coli
[36] = test system: Treponema denticola
[37] = test system: Pasteurella multocida
[38] = test system: Leptospira interrogans
[39] = test system: Nocardia sp.
[40] = test system: Enterococcus faecalis
[41] = test system: Group B Streptococcus
[42] = test system: Bacillus anthracis
[43] = test system: Yersinia pestis
[44] = test system: Prevotella intermedia
[45] = test system: Mycobacterium bovis

Measured: bacteria killing ability

LL-37 (LLGDFFRKSKEKIGKEFKRIVQRIKDFLRNLVPRTES; Antibacterial peptide LL-37; UniProt P49913 134-170, looked up) [antimicrobial peptide; the factotum human cathelicidin peptide]
kill: all assays above
